Experimental data taken from publication PMC10714432 (ACS Pharmacology & Translational Science, 2023).

Biological target: PDE5A1 (Homo sapiens, UniProt O76074)
Test: cGMP hydrolysis by purified PDE5A1, cGMP Lumit bioluminescent readout
Type: biochemical

SMILES: CC(C)Cn1c(=O)n(C)c(=O)c2[nH]cnc21 [IBMX]
- IC50: 3.8 µM
